Among the data in patent US11098026B2, “Fused bicyclic compounds, compositions and applications thereof” (IMPETIS BIOSCIENCES LIMITED, priority 2017, dated 2021) are IC50 values, retold here.

For orientation: IC50 means the concentration at which inhibition is half-maximal.

This assay deals with T1, human GPR91 receptor (Homo sapiens, UniProt Q9BXA5).
T1 construct: expressed in transfected cells; host or cells: CHO-K1 NFAT cells
T1 sequence (Q9BXA5 1-334): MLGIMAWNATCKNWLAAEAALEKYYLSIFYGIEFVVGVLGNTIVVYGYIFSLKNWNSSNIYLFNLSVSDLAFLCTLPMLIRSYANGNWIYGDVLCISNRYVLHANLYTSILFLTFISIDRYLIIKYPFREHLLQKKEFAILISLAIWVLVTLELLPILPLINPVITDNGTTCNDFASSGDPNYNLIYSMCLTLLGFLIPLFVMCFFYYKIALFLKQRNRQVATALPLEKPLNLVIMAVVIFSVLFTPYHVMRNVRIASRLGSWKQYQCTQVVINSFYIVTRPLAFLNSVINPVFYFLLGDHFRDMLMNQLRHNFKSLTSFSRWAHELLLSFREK
Nature of the assay: Human GPR91 calcium mobilization assay. The settings on record: CHO-K1 NFAT cells over expressing human GPR91 receptor; Fluo4 AM; agonist sodium succinate; flex station; read-out: hGPR91 IC50 (μM)*. Type of assay: cell-based. As for the experimental part:
Human GPR91 Calcium Mobilization Assay
To determine IC50 in CHO NFAT cells over expressing human GPR91 receptor calcium mobilization assay in flex station mode was carried out.
Grow CHO-K1 NFAT cells over expressing human GPR91 receptors in alpha MEM media were supplemented with 10% FBS (heat inactivated), 0.5 mg/ml of G-418, 0.5 mg/ml of Zeocin and 0.6 mg/ml of Hygromycin B.
The cells were seeded at least 21 hours before the experiment at the density of 25000/well in 96 well plate (Corning cat #no. 3603). It was made sure that cells were at least 95% confluent on the day of assay. No antibiotics were used for seeding purpose.
On the day of assay the media was discarded from plates and plates were washed with 100 μl of HBSS assay buffer. The plates were loaded with Fluo4 AM at 2 μM concentration. Pluronic F-127 dye was solubilized in calcium assay buffer containing 0.1% BSA, i.e., 20 μl dye+20 μl Pluronic F127 for 10 ml. Appropriate amounts of 100× probenecid was added to the loading mixture 1× final (100 μl per 10 ml). Total volume of dye loaded was made 100 μl. The plate was then wrapped in aluminium foil to protect from light and were incubated for 90 mins at 37 degrees in cell culture incubator. At the end of incubation the plates was washed again with 100 μl of HBSS buffer without BSA and 75 μl of HBSS buffer was added (without BSA) to the plate.
Further, 8 point-Dose response curve of the compounds of the present disclosure was prepared in 100% DMSO followed by 57.14-fold dilution to 1.75× in 1.75% DMSO in assay buffer. 100 μL of 1.75×NCE was added to the wells as shown below and incubated at room temp on orbital shaker at 300 rpm for 15 min. Flexstation [excitation @ 485 nm and emission @ 525 nm] for a total time of 60 seconds. 25 μL of 8× agonist (800 μM sodium succinate) was added to each well using the flexstation after establishing the baseline for 20 sec, Measurement—Max-Min over 60 sec. Using the above protocol results obtained are tabulate din the Table 1 below: […]
Background: A change in cytosolic calcium serves as a functional read-out for many receptors and channels.
Turning to `N#Cc1n[nH]c2ccc(Oc3ccc(Oc4cccc(CC(=O)O)c4)c(C(F)(F)F)c3)cc12` [Compound A-46, 2-[3-[4-[(3-cyano-1H-indazol-5-yl)oxy]-2-(trifluoromethyl)phenoxy]phenyl]acetic acid], the IC50 is less than 5 µM. `O=C(O)Cc1cccc(Oc2ccc(Oc3ccc4[nH]nc(C(=O)O)c4c3)cc2C(F)(F)F)c1` [Compound A-47, 5-[4-[3-(carboxymethyl)phenoxy]-3-(trifluoromethyl)phenoxy]-1H-indazole-3-carboxylic acid]: the IC50 was less than 5 µM. The figure for `O=C(O)Cc1cccc(Oc2ccc(Oc3cccc4[nH]ncc34)cc2C(F)(F)F)c1` [Compound A-48, 2-[3-[4-(1H-indazol-4-yloxy)-2-(trifluoromethyl)phenoxy]phenyl]acetic acid] is less than 5 µM; for `O=C(O)Cc1cccc(Oc2ccc(Oc3cccc4cncn34)cc2C(F)(F)F)c1` [Compound B-1, 2-[3-[4-imidazo[1,5-a]pyridin-5-yloxy-2-(trifluoromethyl)phenoxy]phenyl]acetic acid] it is less than 5 µM; for `O=C(O)Cc1cccc(Oc2ccc(Oc3cccn4cncc34)cc2C(F)(F)F)c1` [Compound B-2, 2-[3-[4-imidazo[1,5-a]pyridin-8-yloxy-2-(trifluoromethyl)phenoxy]phenyl]acetic acid] it is less than 5 µM.

For `Cc1ncc2cccc(Oc3ccc(Oc4cccc(CC(=O)O)c4)c(C(F)(F)F)c3)n12` [Compound B-3, 2-[3-[4-(3-methylimidazo[1,5-a]pyridin-5-yl)oxy-2-(trifluoromethyl)phenoxy]phenyl]acetic acid], the IC50 was less than 5 µM. As to `Cc1ncc2c(Oc3ccc(Oc4cccc(CC(=O)O)c4)c(C(F)(F)F)c3)cccn12` [Compound B-4, 2-[3-[4-(3-methylimidazo[1,5-a]pyridin-8-yl)oxy-2-(trifluoromethyl)phenoxy]phenyl]acetic acid], the half-inhibitory concentration (IC50) is 5 to 10 µM. Turning to `O=C(O)Cc1cccc(Oc2ccc(Oc3ccc4cnc(C5COC5)n4c3)cc2C(F)(F)F)c1` [Compound B-5, 2-[3-[4-[3-(oxetan-3-yl)imidazo[1,5-a]pyridin-6-yl]oxy-2-(trifluoromethyl)phenoxy]phenyl]acetic acid], the IC50 was in the range of 5 to 10 µM. The figure for `NC(=O)CCc1cccc(Oc2ccc(Oc3cccc4ccncc34)cc2C(F)(F)F)c1` [Compound C-2, 3-[3-[4-(8-isoquinolyloxy)-2-(trifluoromethyl)phenoxy]phenyl]propanamide] is 5 to 10 µM; for `NC(=O)Cc1cccc(Oc2ccc(Oc3cccc4ccncc34)cc2C(F)(F)F)c1` [Compound C-3, 2-[3-[4-(8-isoquinolyloxy)-2-(trifluoromethyl)phenoxy]phenyl]acetamide] it is less than 5 µM; for `FC(F)(F)c1cc(Oc2cccc3ccncc23)ccc1Oc1cccc(CCc2nnc[nH]2)c1` [Compound D-1, 8-[4-[3-[2-(4H-1,2,4-triazol-3-yl)ethyl]phenoxy]-3-(trifluoromethyl)phenoxy]isoquinoline] it is greater than 10 µM. The figure for `FC(F)(F)c1cc(Oc2cccc3ccncc23)ccc1Oc1cccc(CCc2nnn[nH]2)c1` [Compound D-2, 8-[4-[3-[2-(1H-tetrazol-5-yl)ethyl]phenoxy]-3-(trifluoromethyl)phenoxy]isoquinoline] is 5 to 10 µM; for `FC(F)(F)c1cc(Oc2cccc3ccncc23)ccc1Oc1cccc(Cc2nnn[nH]2)c1` [Compound D-3, 8-[4-[3-(1H-tetrazol-5-ylmethyl)phenoxy]-3-(trifluoromethyl)phenoxy]isoquinoline] it is 5 to 10 µM; for `O=C(O)Cc1cccc(Oc2ccc(Oc3cccc4ccncc34)c(C(F)(F)F)c2)c1` [Compound E-1, 2-[3-[4-(8-isoquinolyloxy)-3-(trifluoromethyl)phenoxy]phenyl]acetic acid] it is greater than 10 µM.
